Measurements: patent publication US8980911B2, “Heterocyclic compounds as protein kinase inhibitors” (Daiichi Sankyo Company, Limited, priority 2011, dated 2015)
pIC50: −log10 of the molar value.

Tests used:
Assay type in all cases: biochemical
[1] = biological target: T1, JAK1 (Homo sapiens, UniProt P23458); assay: In vitro enzyme assay (cell-free HTRF kinase assay), JAK1; settings: catalytic domain aa 850-1154, GST-tag; ATP 60 μM, SRCtide 400 nM, reaction 120 min
T1 construct: JAK1 (aa 850-1154) and TYK2 (aa 871-1187) are expressed with an N-terminally fused GST-tag; GST (N); purchased Carna Bioscience, Inc; host or cells: baculovirus expression system
T1 sequence (P23458 850-1154): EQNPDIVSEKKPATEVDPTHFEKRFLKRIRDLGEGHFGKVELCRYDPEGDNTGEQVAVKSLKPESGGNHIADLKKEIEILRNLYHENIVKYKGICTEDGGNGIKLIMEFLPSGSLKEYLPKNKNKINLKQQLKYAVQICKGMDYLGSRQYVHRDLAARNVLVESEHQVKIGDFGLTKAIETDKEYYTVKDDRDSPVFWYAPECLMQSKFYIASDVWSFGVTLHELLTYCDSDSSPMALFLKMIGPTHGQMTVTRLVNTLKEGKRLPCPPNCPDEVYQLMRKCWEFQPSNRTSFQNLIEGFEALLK
Experimental: (§1) Kinase buffer [50 mM HEPES (pH 7.5), 1 mM EGTA, 10 mM MgCl2, 2 mM DTT and 0.01% Tween-20) was prepared and dilutions of a compound of formula (I) and other reagents were subsequently made in it. Two times concentrated compound of formula (I) solution: A compound of formula (I) was diluted to 100-fold final concentration in DMSO, followed by 50-fold dilution with Kinase buffer (1% DMSO final concentration). Four times concentrated Substrate/ATP mix solution: Biotin-SRCtide and ATP were diluted to 4-fold final concentration in Kinase buffer. Biotin-SRCtide solution (purchased from Anaspec) was mixed with ATP solution (1:1). Four times concentrated Enzyme solution: JAK1 or JAK2 or JAK3 or TYK2 enzyme [Human baculo virus expressed JAK1, JAK2, JAK3 and TYK2 were purchased from Carna Bioscience, Inc. All enzymes only contain the catalytic domain. JAK1 (aa 850-1154) and TYK2 (aa 871-1187) are expressed with an N-terminally fused GST-tag, and JAK2 and JAK3 with an N-terminally fused His-tag] was diluted to 4-fold final concentration in Kinase buffer and always kept on ice. Detection buffer: LANCE detection buffer (10 times concentrated) was diluted 10-fold in H2O. Four times concentrated stop solution: EDTA was diluted to a concentration of 40 mM in detection buffer. Four times concentrated ULight/Eu-antibody (from Perkin Elmer) mix solution: ULight-Streptavidin was diluted to a concentration of 100 nM (25 ng/mL final concentrations) and Eu-anti-phospho-Tyrosine (PT66) (from Perkin Elmer) was diluted to a concentration of 8 nM (2 ng/mL final concentration) in detection buffer.
(§2) Cell-free in vitro kinase assay was performed in 384 well plates. Two times concentrated compound solution (5 μL) was pipetted into a HTS 384SV Small Volume Plate. Four times concentrated Substrate/ATP mix (2.5 μL) solution was added along with 4 times concentrated Enzyme solution (2.5 μL). Plate was covered with TopSeal-A and incubated at room temperature for indicated time (Table 3). Four times concentrated Stop solution (5 μL, 10 mM final concentration) was added and incubated for 5 minutes at room temperature. Four times concentrated ULight/Eu-antibody mix solution (5 μL) was added and again plate was covered with TopSeal and incubated overnight at 4° C. TopSeal was removed and HTRF signal was measured at 615 nm and […] (excitation at 320 or 340 nm) on Tecan M1000 Multi mode plate reader. Ratio (665 nm/615 nm)×10^4 was calculated and IC50 values were deduced from Graph-pad prism 4.2.

[2] = biological target: T2, JAK2 (Homo sapiens, UniProt O60674); assay: In vitro enzyme assay (cell-free HTRF kinase assay), JAK2; settings: catalytic domain, His-tag; ATP 10 μM, SRCtide 25 nM, reaction 30 min
T2 construct: All enzymes only contain the catalytic domain; His (N); purchased Carna Bioscience, Inc; host or cells: baculovirus expression system
T2 sequence (O60674 849-1124 limits assumed): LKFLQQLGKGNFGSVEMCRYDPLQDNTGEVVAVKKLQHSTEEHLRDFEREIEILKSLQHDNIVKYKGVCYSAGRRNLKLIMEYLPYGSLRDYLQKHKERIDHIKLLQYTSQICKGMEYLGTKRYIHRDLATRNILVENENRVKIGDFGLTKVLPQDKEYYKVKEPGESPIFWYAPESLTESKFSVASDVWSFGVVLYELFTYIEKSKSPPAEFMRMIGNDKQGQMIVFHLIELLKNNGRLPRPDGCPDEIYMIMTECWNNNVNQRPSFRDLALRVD
Experimental: as §1, §2

[3] = biological target: T3, JAK3 (Homo sapiens, UniProt P52333); assay: In vitro enzyme assay (cell-free HTRF kinase assay), JAK3; settings: catalytic domain, His-tag; ATP 3 μM, SRCtide 100 nM, reaction 30 min
T3 construct: All enzymes only contain the catalytic domain; His (N); purchased Carna Bioscience, Inc; host or cells: baculovirus expression system
T3 sequence (P52333 822-1111 limits assumed): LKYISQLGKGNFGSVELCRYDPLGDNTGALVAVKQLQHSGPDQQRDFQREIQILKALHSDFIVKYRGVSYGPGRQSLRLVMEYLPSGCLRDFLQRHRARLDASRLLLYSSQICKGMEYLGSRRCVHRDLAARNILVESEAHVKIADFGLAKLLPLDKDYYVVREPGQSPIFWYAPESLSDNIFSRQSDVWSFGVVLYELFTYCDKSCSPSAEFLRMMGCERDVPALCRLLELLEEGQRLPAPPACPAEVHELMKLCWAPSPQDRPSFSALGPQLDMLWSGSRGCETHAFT
Experimental: as §1, §2

Row | SMILES | pIC50 [1] | pIC50 [2] | pIC50 [3]
1 | O=C(Nc1nccc2c1ccn2C(=O)c1c(Cl)cc(CO)cc1Cl)C1CC1 [Compound No. 96, N-{1-[2,6-Dichloro-4-(hydroxymethyl)benzoyl]-1H-pyrrolo[3,2-c]pyridin-4-yl}cyclopropanecarboxamide] | > 6.00 | > 6.30 | > 6.30
2 | CCNC(=O)Nc1cc(Cl)c(C(=O)n2ccc3c(NC(=O)C4CC4)nccc32)c(Cl)c1 [Compound No. 103, N-(1-{2,6-Dichloro-4-[(ethylcarbamoyl)amino]benzoyl}-1H-pyrrolo[3,2-c]pyridin-4-yl)cyclopropanecarboxamide] | > 6.00 | > 6.30 | > 6.30
3 | CC(C)NC(=O)c1cc(Cl)c(C(=O)n2ccc3c(NC(=O)C4CC4)nccc32)c(Cl)c1 [Compound No. 107, 3,5-Dichloro-4-({4-[(cyclopropylcarbonyl)amino]-1H-pyrrolo[3,2-c]pyridin-1-yl}carbonyl)-N-(propan-2-yl)benzamide] | > 6.30 | > 6.30 | > 6.30
4 | COCCNC(=O)Nc1cc(Cl)c(C(=O)n2ccc3c(NC(=O)C4CC4)nccc32)c(Cl)c1 [Compound No. 111, N-[1-(2,6-Dichloro-4-{[(2-methoxyethyl)carbamoyl]amino}benzoyl)-1H-pyrrolo[3,2-c]pyridin-4-yl]cyclopropanecarboxamide] | > 6.00 | > 6.30 | > 6.30
5 | CN(CCO)C(=O)Nc1cc(Cl)c(C(=O)n2ccc3c(NC(=O)C4CC4)nccc32)c(Cl)c1 [Compound No. 112, N-[1-(2,6-Dichloro-4-{[(2-hydroxyethyl)(methyl)carbamoyl]amino}benzoyl)-1H-pyrrolo[3,2-c]pyridin-4-yl]cyclopropanecarboxamide] | > 6.00 | > 6.30 | > 6.30
6 | O=C(Nc1cc(Cl)c(C(=O)n2ccc3c(NC(=O)C4CC4)nccc32)c(Cl)c1)NC1CC1 [Compound No. 113, N-(1-{2,6-Dichloro-4-[(cyclopropylcarbamoyl)amino]benzoyl}-1H-pyrrolo[3,2-c]pyridin-4-yl)cyclopropanecarboxamide] | > 6.00 | > 6.30 | > 6.30
7 | O=C(NCCO)Nc1cc(Cl)c(C(=O)n2ccc3c(NC(=O)C4CC4)nccc32)c(Cl)c1 [Compound No. 115, N-[1-(2,6-Dichloro-4-{[(2-hydroxyethyl)carbamoyl]amino}benzoyl)-1H-pyrrolo[3,2-c]pyridin-4-yl]cyclopropanecarboxamide] | > 6.00 | > 6.30 | > 6.30
8 | O=C(Nc1cc2c(ccn2C(=O)c2c(Cl)cccc2Cl)cn1)C1CC1 [Compound No. 120, N-[1-(2,6-Dichlorobenzoyl)-1H-pyrrolo[3,2-c]pyridin-6-yl]cyclopropanecarboxamide] | > 7.00 | > 7.30 | > 7.30
9 | CN(C)CCNC(=O)c1cc(Cl)c(C(=O)n2ccc3c(NC(=O)C4CC4)nccc32)c(Cl)c1 [Compound No. 122, 3,5-Dichloro-4-({4-[(cyclopropylcarbonyl)amino]-1H-pyrrolo[3,2-c]pyridin-1-yl}carbonyl)-N-[2-(dimethylamino)ethyl]benzamide] | > 6.00 | > 6.30 | > 7.00
10 | NCCNC(=O)c1cc(Cl)c(C(=O)n2ccc3c(NC(=O)C4CC4)nccc32)c(Cl)c1 [Compound No. 127, N-(2-Aminoethyl)-3,5-dichloro-4-({4-[(cyclopropylcarbonyl)amino]-1H-pyrrolo[3,2-c]pyridin-1-yl}carbonyl)benzamide] | > 6.30 | > 7.00 | > 7.30
11 | CCNC(=O)c1cc(Cl)c(C(=O)n2ccc3cnc(NC(=O)C4CC4)cc32)c(Cl)c1 [Compound No. 130, 3,5-dichloro-4-({6-[(cyclopropylcarbonyl)amino]-1H-pyrrolo[3,2-c]pyridin-1-yl}carbonyl)-N-ethylbenzamide] | > 6.30 | > 7.30 | > 7.00
12 | N#Cc1cc(Cl)c(C(=O)n2ccc3cnc(NC(=O)C4CC4)cc32)c(Cl)c1 [Compound No. 137, N-[1-(2,6-dichloro-4-cyanobenzoyl)-1H-pyrrolo[3,2-c]pyridin-6-yl]cyclopropanecarboxamide] | > 6.30 | > 7.30 | > 6.30
13 | CCOC(=O)[C@H](C)NC(=O)c1cc(Cl)c(C(=O)n2ccc3c(NC(=O)C4CC4)nccc32)c(Cl)c1 [Compound No. 141, Ethyl N-[3,5-dichloro-4-({4-[(cyclopropylcarbonyl)amino]-1H-pyrrolo[3,2-c]pyridin-1-yl}carbonyl)benzoyl]alaninate] | > 6.00 | > 6.00 | > 6.00
14 | O=C(NCC(O)CO)c1cc(Cl)c(C(=O)n2ccc3c(NC(=O)C4CC4)nccc32)c(Cl)c1 (stereo not drawn) [Compound No. 143, 3,5-Dichloro-4-({4-[(cyclopropylcarbonyl)amino]-1H-pyrrolo[3,2-c]pyridin-1-yl}carbonyl)-N-(2,3-dihydroxypropyl)benzamide] | > 6.00 | > 6.30 | > 7.30
15 | O=C(NCc1ccccn1)c1cc(Cl)c(C(=O)n2ccc3c(NC(=O)C4CC4)nccc32)c(Cl)c1 [Compound No. 147, 3,5-Dichloro-4-({4-[(cyclopropylcarbonyl)amino]-1H-pyrrolo[3,2-c]pyridin-1-yl}carbonyl)-N-(pyridin-2-ylmethyl)benzamide] | > 6.30 | > 6.30 | > 6.30
16 | O=C(NCCN1CCCC1)c1cc(Cl)c(C(=O)n2ccc3c(NC(=O)C4CC4)nccc32)c(Cl)c1 [Compound No. 148, 3,5-Dichloro-4-({4-[(cyclopropylcarbonyl)amino]-1H-pyrrolo[3,2-c]pyridin-1-yl}carbonyl)-N-[2-(pyrrolidin-1-yl)ethyl]benzamide] | > 6.30 | > 6.30 | > 7.00
17 | O=C(NCCCN1CCOCC1)c1cc(Cl)c(C(=O)n2ccc3c(NC(=O)C4CC4)nccc32)c(Cl)c1 [Compound No. 149, 3,5-Dichloro-4-({4-[(cyclopropylcarbonyl)amino]-1H-pyrrolo[3,2-c]pyridin-1-yl}carbonyl)-N-[3-(morpholin-4-yl)propyl]benzamide] | > 6.30 | > 6.00 | > 6.30
18 | O=C(NCCN1CCCCC1)c1cc(Cl)c(C(=O)n2ccc3c(NC(=O)C4CC4)nccc32)c(Cl)c1 [Compound No. 150, 3,5-Dichloro-4-({4-[(cyclopropylcarbonyl)amino]-1H-pyrrolo[3,2-c]pyridin-1-yl}carbonyl)-N[2-(piperidin-1-yl)ethyl]benzamide] | > 6.30 | > 6.30 | > 6.30
19 | CC(CO)NC(=O)c1cc(Cl)c(C(=O)n2ccc3c(NC(=O)C4CC4)nccc32)c(Cl)c1 (stereo not drawn) [Compound No. 151, 3,5-Dichloro-4-({4-[(cyclopropylcarbonyl)amino]-1H-pyrrolo[3,2-c]pyridin-1-yl}carbonyl)-N-(1-hydroxypropan-2-yl)benzamide] | > 6.00 | > 6.30 | > 6.30
20 | O=C(NCCF)c1cc(Cl)c(C(=O)n2ccc3c(NC(=O)C4CC4)nccc32)c(Cl)c1 [Compound No. 154, 3,5-Dichloro-4-({4-[(cyclopropylcarbonyl)amino]-1H-pyrrolo[3,2-c]pyridin-1-yl}carbonyl)-N-(2-fluoroethyl)benzamide] | > 6.00 | > 6.30 | > 6.30
